The results in this text go back to publication PMC10118286 (Journal of medicinal chemistry, 2021).

Data set [1] deals with MDA-MB-468 cells. To be noted: read-out: Anti-proliferative active (IC50, μM) MDA-MB-468; cell viability assay for 24 h.
For data set [2], the system named is MDA-MB-231 cells. To be noted: read-out: Anti-proliferative active (IC50, μM) MDA-MB-231; cell viability assay for 24 h.
Data set [3] has as its target T1, BRD4 (Homo sapiens, UniProt O60885). Briefly: BRD4 inhibition assay. In kind it is binding.
Data set [4] deals with T2, CK2 (Homo sapiens, UniProt P68400). To be noted: 10 μM.
Data set [5] addresses T2, CK2. Briefly: biochemical. The following applies: read-out: Kinase inhibitory activity (1 μM, %) CK2.
The subject of data set [6] is MDA-MB-468 cells. Briefly: Colony formation assay, MDA-MB-468. Type of data set: cell-based. The following applies: 0, 2.5, 5, and 10 μM for 7 days.
For data set [7], the system named is MDA-MB-231 cells. Briefly: Annexin-V/PI flow cytometry apoptosis, MDA-MB-231. In kind it is cell-based. The following applies: 24 h. For orientation: Flow cytometry measures light scatter and fluorescence of single cells or particles in a stream.
Data set [8] has as its system MDA-MB-231 cells. Briefly: Colony formation assay, MDA-MB-231. The following applies: 0, 2.5, 5, and 10 μM for 7 days. In kind it is cell-based.
A short description of data set [9]: Pharmacokinetic study in SD rats. Type of data set: in vivo, Sprague–Dawley (SD) rats.
Data set [10] deals with MDA-MB-468 cells. Nature of the data set: Autophagy assay. Type of data set: cell-based. To be noted: 5 μM.
For the next data set, the system named is CK1. To be noted: read-out: CK1 inhibitory profile (IC50); triplicate, mean ± SD.
For the next data set, the target named is CK2α (Homo sapiens, UniProt P68400). Briefly: CETSA in MDA-MB-231 cells, CK2α. The following applies: 5 μM, 6 h. In kind it is cell-based.
The target of data set [11] is T1, BRD4. Nature of the data set: CETSA in MDA-MB-231 cells, BRD4. Type of data set: cell-based. To be noted: 5 μM, 6 h.
In data set [12] the test system is MDA-MB-231 cells. Nature of the data set: Autophagy assay. Type of data set: cell-based. The following applies: 5 μM.
In data set [13] the test system is MDA-MB-468 cells. Briefly: Annexin-V/PI flow cytometry apoptosis, MDA-MB-468. In kind it is cell-based. To be noted: 24 h.
For data set [14], the system named is p-BRD4^S492. Nature of the data set: Western blot of p-BRD4 S492, MDA-MB-231 cells. To be noted: 0, 2.5, 5, and 10 μM for 24 h. In kind it is cell-based.
The test system of a further data set is MDA-MB-231 xenograft. Briefly: MDA-MB-231 xenograft tumor model. In kind it is in vivo, nude mice (BALB/c).
For a further data set, the system named is MDA-MB-231R cells. Briefly: Antiproliferative activity toward compound 1-resistant MDA-MB-231R cells. To be noted: p < 0.01.
The next data set deals with MCF-10A cells. Briefly: Cell viability. Type of data set: cell-based.
Data set [15] concerns p-BRD4^S492. Nature of the data set: Western blot of p-BRD4 S492, MDA-MB-468 cells. Type of data set: cell-based. To be noted: 0, 2.5, 5, and 10 μM for 24 h. (A western blot detects proteins with antibodies after separation by electrophoresis.)
The mark [16] stands for this setting: 25 and 50 mg/kg, intragastric, 19 days.
Where [17] appears, read: intragastric, once a day for 19 days.

T2 sequence (P68400 whole entry): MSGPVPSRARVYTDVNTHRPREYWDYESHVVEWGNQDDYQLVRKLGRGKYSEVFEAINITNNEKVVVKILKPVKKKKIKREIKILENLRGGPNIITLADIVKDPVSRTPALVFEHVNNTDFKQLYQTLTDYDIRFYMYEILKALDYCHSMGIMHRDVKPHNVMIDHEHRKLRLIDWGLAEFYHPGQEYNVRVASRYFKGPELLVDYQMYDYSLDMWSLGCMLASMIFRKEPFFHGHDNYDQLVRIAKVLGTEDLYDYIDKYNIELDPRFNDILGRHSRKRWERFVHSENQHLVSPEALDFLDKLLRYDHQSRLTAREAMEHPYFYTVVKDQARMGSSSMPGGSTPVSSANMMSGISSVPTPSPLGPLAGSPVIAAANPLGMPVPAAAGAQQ
Sequence of CK2α (P68400 whole entry): as above

Turning to “6-Methoxy-2-(2-methoxyphenyl)-4H-chromen-4-one [Compound 33c]”, the IC50 in the data set with MDA-MB-468 cells [1] and in the data set with MDA-MB-231 cells [2] was more than 50 µM in each case.
For “N-(3-Chloro-4-(4-methylpiperazin-1-yl)phenyl)-2-(4-(6-chloro-4-oxo-1,4-dihydroquinazolin-2-yl)phenoxy)acetamide [Compound 44l]”, the IC50 is 15.3 ± 0.72 µM in the data set on MDA-MB-468 cells [1] and 14.4 ± 0.58 µM in the data set with MDA-MB-231 cells [2].
For “N-(3-Chloro-4-(4-methylpiperazin-1-yl)phenyl)-2-(4-(6-fluoro-4-oxo-1,4-dihydroquinazolin-2-yl)phenoxy)acetamide [Compound 44j]”, in that order: 7.51 ± 1.13 µM and 6.94 ± 0.68 µM.
On to “2-(4-(5,7-Dimethoxy-4-oxo-1,4-dihydroquinazolin-2-yl)-2,6-dimethylphenoxy)-N-morpholinoacetamide [Compound 42b]”, for which the IC50 in the data set on MDA-MB-468 cells [1] was found to be 18.5 ± 1.23 µM; with MDA-MB-231 cells [2], 20.6 ± 0.62 µM.
With `COc1cc(OC)c2c(=O)[nH]c(-c3ccc(OCC(=O)O)cc3)nc2c1` [Compound 26, 2-(4-(5,7-Dimethoxy-4-oxo-1,4-dihydroquinazolin-2-yl)-phenoxy)acetic Acid], the “inhibitory ratio on BRD4” value on BRD4 [3] (10 μM) amounted to 63%. For the same compound, the “inhibitory ratio on CK2” value at CK2 [4] is given as 45%.
Turning to `COc1cc(OC)c2c(=O)[nH]c(-c3cc(C)c(OCC(=O)Nc4nc5ccccc5[nH]4)c(C)c3)nc2c1` [Compound 42j, N-(1H-Benzo[d]imidazol-2-yl)-2-(4-(5,7-dimethoxy-4-oxo-1,4-dihydroquinazolin-2-yl)-2,6-dimethylphenoxy)acetamide], on CK2 [5], the inhibition at 1 µM is 25.6 ± 6.57%.
In the case of `COc1cc(OC)c2c(=O)[nH]c(-c3ccc(OCC(=O)Nc4ccc(N5CCN(C)CC5)c(Cl)c4)cc3)nc2c1` [Compound 44e, N-(3-Chloro-4-(4-methylpiperazin-1-yl)phenyl)-2-(4-(5,7-dimethoxy-4-oxo-1,4-dihydroquinazolin-2-yl)phenoxy)acetamide], the colony formation result in the data set with MDA-MB-468 cells [6] is “dose-dependently suppressed growth and reduced the number of colonies”; with MDA-MB-231 cells [8], “dose-dependently suppressed growth and reduced the number of colonies”. Further, the “apoptosis (Annexin-V/PI)” value with MDA-MB-231 cells [7] and in the data set with MDA-MB-468 cells [13] was “dose-dependently induced apoptosis” in each case. Also, the CL in data set [9] (iv 1 mg/kg) was 57.4 ± 1.3 (mL/min)/kg. For the same compound, the “time at which the highest concentration was observed” value in data set [9] (po 10 mg/kg) worked out at 5.14 ± 0.71 h. The autophagy induction entry with MDA-MB-468 cells [10] and with MDA-MB-231 cells [12] was “significantly induced autophagy” throughout. Further, the IC50 with CK1 was more than 10 µM. The “thermal stability of CK2α (CETSA)” value at CK2α is reported as “improved the thermal stability”. Further, the “thermal stability of BRD4 (CETSA)” value at BRD4 [11] is “improved the thermal stability”. Also, the “level of p-BRD4^S492” value with p-BRD4^S492 [14] and in the data set on p-BRD4^S492 [15] was “dose-dependently downregulated” each time. Moreover, the “tumor growth inhibition (in words)” value with MDA-MB-231 xenograft (setting [16]) and with MDA-MB-468 xenograft (setting [16]) was “dose-dependent tumor growth inhibition” each time. The “Ki-67 immunohistochemical staining in tumor tissue” value with MDA-MB-231 xenograft (25 or 50 mg/kg) was “significantly inhibit the proliferation”. In addition, the “expression of c-Myc and p-AKT^S129 in xenograft tumor tissues (IHC)” value in the data set with MDA-MB-231 xenograft (25 or 50 mg/kg, compared with control group) is “significantly reduced”. The “HE staining of heart, liver, spleen, lung, and kidney tissues” value with MDA-MB-231 xenograft (after 19 days of treatment) and in the data set with MDA-MB-468 xenograft (after 19 days of treatment) was “No significant morphologic or structural changes” in each case. The “mouse body weight and death” value with MDA-MB-231 xenograft (setting [17]) is “No significant changes in mouse body weight and death”; in the data set with MDA-MB-468 xenograft (setting [17]) it was “No significant changes in mouse body weight and death”. The “anticancer activity against compound 1-resistant cells” value in the data set with MDA-MB-231R cells was “able to alleviate drug resistance of 1”. Moreover, in the data set on MCF-10A cells, the “toxicity to the normal breast cell line MCF-10A” value is “did not have obvious toxicity”.
As for “2-(4-(5,7-Dimethoxy-4-oxo-1,4-dihydroquinazolin-2-yl)-phenoxy)-N-(4-methylpiperazin-1-yl)acetamide [Compound 42g]”, the IC50 with MDA-MB-468 cells [1] worked out at 13.7 ± 0.23 µM; in the data set on MDA-MB-231 cells [2] it was 12.8 ± 1.72 µM.
With “N-(3-Chloro-4-(4-methylpiperazin-1-yl)phenyl)-2-(4-(7-chloro-4-oxo-1,4-dihydroquinazolin-2-yl)phenoxy)acetamide [Compound 44m]”, the IC50 was 6.23 ± 0.55 µM in the data set with MDA-MB-468 cells [1] and 5.21 ± 0.82 µM in the data set on MDA-MB-231 cells [2].
Consider “N-(3-Chloro-4-(4-methylpiperazin-1-yl)phenyl)-2-(4-(6-methoxy-4-oxo-1,4-dihydroquinazolin-2-yl)phenoxy)acetamide [Compound 44k]”, for which the figures for the IC50 in the data set with MDA-MB-468 cells [1] and with MDA-MB-231 cells [2] were 16.4 ± 0.85 µM and 14.6 ± 0.77 µM, respectively.
For “N-(3-Chloro-4-(4-methylpiperazin-1-yl)phenyl)-2-(4-(7-methyl-4-oxo-1,4-dihydroquinazolin-2-yl)phenoxy)acetamide [Compound 44n]”, in that order: 16.2 ± 1.83 µM and 17.4 ± 0.56 µM.
On to `Cc1sc2c(c1C)C(c1ccc(Cl)cc1)=N[C@@H](CC(=O)OC(C)(C)C)c1nnc(C)n1-2` [Compound 1, JQ1, reference compound], for which the inhibition at 1 µM on BRD4 [3] (read-out: Kinase inhibitory activity (1 μM, %) BRD4) was determined as 97 ± 1.32%.
Take “2-(4-(5,7-Dimethoxy-4-oxo-1,4-dihydroquinazolin-2-yl)-phenoxy)-N-morpholinoacetamide [Compound 42a]”: the IC50 was determined as 12.5 ± 0.87 µM in the data set on MDA-MB-468 cells [1] and 14.7 ± 1.55 µM with MDA-MB-231 cells [2].

The IC50 is the concentration that inhibits the measured activity by half.
